Reference: patent publication US20200397894A1, “COMPOSITIONS AND METHODS FOR TREATING CANCER” (University of Virginia Patent Foundation, priority 2016, published 2020)

Tests used:
DM331 xenografts = assay: Melanoma flank xenograft in nude mice; type: in vivo; conditions: vs. vehicle; PLX4720 in rodent diet 417 mg/kg
Procedure: All animal experiments were performed after approval of animal protocols by the Animal Care and Use Committee (ACUC) of the University of Virginia. Animals were housed and handled in accordance with the guidelines of the ACUC of the University of Virginia. The effect of pevonedistat on melanoma growth was tested in flank xenograft models. Foxn1^nu (20-25 g body weight, 4-5 weeks old females) athymic nude immune-deficient mice (Harlan Laboratories, now Envigo, Indianapolis, Ind., United States of America) were used in this study. Pevonedistat was dissolved in sterile 10% DMSO containing PBS (stock 1 mM), filtered, and stored in −20° C. until use. DM93, VMM39, SLM2, DM331, or SK-MEL-24 (2×10^6) melanoma cells were implanted in both flanks of immune-deficient mice (n=12 mice per group) and tumor growth was monitored until they grow to an average volume of 150-200 mm^3, and mice were randomized into groups for treatment. Animals were administered 0.2 mL pevonedistat solution (30 or 60 mg/kg body weight as indicated) intraperitoneally on a schedule of two cycles of five-day treatment followed by five treatment-free days, for 3 weeks, or more as indicated. Control animals were treated with an equal volume of sterile vehicle (10% DMSO in PBS). Where indicated, mice received control rodent diet, or rodent diet with 417 mg/kg PLX4720 (Research Diets, Inc. New Brunswick, N.J., United States of America). Tumors were measured with an electronic caliper every other day for 3 weeks post-drug injection. Animal weight was recorded once a week to detect any weight loss due to the toxicity of drug treatment or tumor burden. At the end of the treatment, animals were euthanized and tumors harvested for further processing. The results shown are mean tumor volumes±s.e.m; *p<0.05, **p<0.01, ***p<0.001.

[1] = test system: DM331 and SK-MEL-24 cells from PLX4720-resistant tumors; assay: In vitro sensitivity of cells extracted ex vivo from PLX4720-resistant tumors; type: cell-based, human; conditions: DM331 and SK-MEL-24 cells extracted ex vivo
Procedure: Proliferation and viability of cultured cells was measured by CELLTITER96® Non-radioactive Cell Proliferation Assay (Promega Corporation; Madison, Wis., United States of America). Briefly, various wild type and mutant BRAF melanoma cells were seeded in 96 well plates and treated with pevonedistat, vemurafenib, or the combination pevonedistat and vemurafenib at various concentrations. Control cells were treated with DMSO. 96 hours following treatment, cells were stained with the dye solution according to the manufacturer's protocol. Absorbance was recorded at 570 nm and growth curves were established. […] Cells were counted every 24 hours using a COUNTESS™ Automated Cell Counter (INVITROGEN™, Carlsbad, Calif., United States of America), and harvested at the indicated times for PI staining and FACS analysis (cell cycle profile) or for immunoblotting.
The effects of pevonedistat, vemurafenib, and/or silencing of various cell cycle-associated proteins by siRNA on cell cycle distribution and rereplication were assessed by propidium iodide staining and flow cytometry of asynchronous melanoma cultures. […]

DM93 cells = assay: Cell cycle distribution and rereplication by propidium iodide staining and FACS; type: cell-based, human
Procedure: The effects of pevonedistat, vemurafenib, and/or silencing of various cell cycle-associated proteins by siRNA on cell cycle distribution and rereplication were assessed by propidium iodide staining and flow cytometry of asynchronous melanoma cultures. Synchronization of cells was not employed to avoid bias and to be able to measure the impact of these perturbations on proliferating cancer cells. […] Cells were washed with cold PBS, harvested, and fixed in 70% (v/v) ethanol. Cells were subsequently treated with 20 μg of DNase-free RNase and stained with propidium iodide according to instructions of the manufacturer. Samples were analyzed on a FACSCAN™ (Becton, Dickinson and Company, Franklin Lakes, N.J., United States of America) and G0-G1, S, and G2-M fractions were segmented, and apoptotic (sub-G1 DNA content) and rereplicating (>G2/M DNA content) fractions were determined using FLOWJO® (FLOWJO, LLC, Ashland, Oreg., United States of America) and ModFit (Verity Software House, Topsham, Me., United States of America) software.

VMM39 cells = assay: Rereplication by propidium iodide staining and FACS; type: cell-based, human; conditions: retroviral overexpression of SET8 and/or p21 species
Procedure: The effects of pevonedistat, vemurafenib, and/or silencing of various cell cycle-associated proteins by siRNA on cell cycle distribution and rereplication were assessed by propidium iodide staining and flow cytometry of asynchronous melanoma cultures. Synchronization of cells was not employed to avoid bias and to be able to measure the impact of these perturbations on proliferating cancer cells. Briefly, asynchronous melanoma cell lines were treated with pevonedistat or vemurafenib, or transfected with si-CDT1, si-CDT2, si-SET8, si-p21, sigeminin, si-EMI1, or si-GL2 for a time ranging from 24 to 96 hours. Cells were washed with cold PBS, harvested, and fixed in 70% (v/v) ethanol. Cells were subsequently treated with 20 μg of DNase-free RNase and stained with propidium iodide according to instructions of the manufacturer. Samples were analyzed on a FACSCAN™ (Becton, Dickinson and Company, Franklin Lakes, N.J., United States of America) and G0-G1, S, and G2-M fractions were segmented, and apoptotic (sub-G1 DNA content) and rereplicating (>G2/M DNA content) fractions were determined using FLOWJO® (FLOWJO, LLC, Ashland, Oreg., United States of America) and ModFit (Verity Software House, Topsham, Me., United States of America) software.

## CCCS(=O)(=O)Nc1ccc(F)c(C(=O)c2c[nH]c3ncc(Cl)cc23)c1F [PLX4720]
DM331 xenografts
  growth of DM331 xenografts: inhibited

## CCCS(=O)(=O)Nc1ccc(F)c(C(=O)c2c[nH]c3ncc(-c4ccc(Cl)cc4)cc23)c1F [vemurafenib, N-(3-(5-(4-chlorophenyl)-1H-pyrrolo[2,3-b]pyridine-3-carbonyl)-2,4-difluorophenyl)propane-1-sulfonamide]
[1]
  sensitivity in vitro of cells from PLX4720-resistant tumors: remained insensitive
DM93 cells; DM93, pretreatment with vemurafenib for 24 hours, then 1 μM pevonedistat 48 hours
  cells undergoing pevonedistat-induced rereplication after vemurafenib pretreatment: 16%
DM93 cells; DM93 cells
  effect on cell cycle: robust G1 growth arrest and complete depletion of S-phase cells

B1: Wild-type CDT1: wild-type CDT1 ectopically expressed from retrovirus (protein, UniProt Q9H211 1-546, looked up)
DNA replication factor Cdt1: MEQRRVTDFFARRRPGPPRIAPPKLACRTPSPARPALRAPASATSGSRKRARPPAAPGRDQARPPARRRLRLSVDEVSSPSTPEAPDIPACPSPGQKIKKSTPAAGQPPHLTSAQDQDTISELASCLQRARELGARVRALKASAQDAGESCTPEAEGRPEEPCGEKAPAYQRFHALAQPGLPGLVLPYKYQVLAEMFRSMDTIVGMLHNRSETPTFAKVQRGVQDMMRRRFEECNVGQIKTVYPASYRFRQERSVPTFKDGTRRSDYQLTIEPLLEQEADGAAPQLTASRLLQRRQIFSQKLVEHVKEHHKAFLASLSPAMVVPEDQLTRWHPRFNVDEVPDIEPAALPQPPATEKLTTAQEVLARARNLISPRMEKALSQLALRSAAPSSPGSPRPALPATPPATPPAASPSALKGVSQDLLERIRAKEAQKQLAQMTRCPEQEQRLQRLERLPELARVLRSVFVSERKPALSMEVACARMVGSCCTIMSPGEMEKHLLLLSELLPDWLSLHRIRTDTYVKLDKAADLAHITARLAHQTRAEEGL
DM93 cells; retroviral overexpression of CDT1 species, DM93 per text
  Percent Rereplication: 51.4%

B2: Wild-type SET8: N-terminal FLAG-tagged Set8 protein encoded by a retrovirus (protein, UniProt Q9NQR1 1-393, looked up)
N-lysine methyltransferase …: MGEGGAAAALVAAAAAAAAAAAAVVAGQRRRRLGRRARCHGPGRAAGGKMSKPCAVEAAAAAVAATAPGPEMVERRGPGRPRTDGENVFTGQSKIYSYMSPNKCSGMRFPLQEENSVTHHEVKCQGKPLAGIYRKREEKRNAGNAVRSAMKSEEQKIKDARKGPLVPFPNQKSEAAEPPKTPPSSCDSTNAAIAKQALKKPIKGKQAPRKKAQGKTQQNRKLTDFYPVRRSSRKSKAELQSEERKRIDELIESGKEEGMKIDLIDGKGRGVIATKQFSRGDFVVEYHGDLIEITDAKKREALYAQDPSTGCYMYYFQYLSKTYCVDATRETNRLGRLINHSKCGNCQTKLHDIDGVPHLILIASRDIAAGEELLYDYGDRSKASIEAHPWLKH
modifications: N-terminal FLAG tag
notes: N-terminal FLAG-tagged Set8 protein encoded by a retrovirus
VMM39 cells
  Percent Rereplication in VMM39: 4.98%
DM93 cells; retroviral overexpression of SET8 and/or p21 species
  Percent Rereplication in DM93: 3.87%
